BindingDB's records for doi:10.1021/acs.jmedchem.8b00435 (Shanghaitech University, 2018)
pEC50: −log10 of the molar value.

Test: Agonist activity at adenosine A3 receptor (unknown origin) expressed in serum starved CHO cells assessed as increase in cell survival after 24 hrs by propidium iodide staining-based assay
Molecule `CNC(=O)[C@@]12C[C@@H]1[C@@H](n1cnc3c(NCc4cccc(Cl)c4)nc(C#Cc4ccc5ccc6cccc7ccc4c5c67)nc31)[C@H](O)[C@@H]2O` has a pEC50 of 7.89.
Work on `CNC(=O)[C@@]12C[C@@H]1[C@@H](n1cnc3c(NCc4cccc(Cl)c4)nc(C#Cc4ccccc4)nc31)[C@H](O)[C@@H]2O` yielded a pEC50 of 9.70.
`CNC(=O)[C@@]12C[C@@H]1[C@@H](n1cnc3c(NCc4cccc(Cl)c4)nc(C#Cc4ccc(-c5ccccc5)cc4)nc31)[C@H](O)[C@@H]2O` gave a pEC50 of 9.60.
Molecule `CNC(=O)[C@@]12C[C@@H]1[C@@H](n1cnc3c(NCc4cccc(Cl)c4)nc(C#Cc4cc5cccc6ccc7cccc4c7c65)nc31)[C@H](O)[C@@H]2O` has a pEC50 of 7.70.
